According to patent US10023565B2, “N,N′ substituted piperidinamine compounds, and preparation method and usage thereof” (Institute of Pharmacology and Toxicology Academy of …, priority 2013, dated 2018):

Assays:
Experiment in all cases: Antitumor bioactivity evaluation, breast cancer cells (ATPlite)
BT/Lap^R1.0 = assay type: cell-based, human; details: Homo sapiens; test sample 5 μM, 72 hours; read-out: Inhibitory Rate % BT/Lap^R1.0
Method: (§1) Antitumor bioactivity evaluation of the compounds of Examples according to the method described below
(§2) Cells plating: a 100 mm culture dish with overgrown adherent cells was digested with 1 ml 0.25% trypsin (GIBCO) at 37° C. for 5 min, and the reaction was terminated with 2 ml culture medium (containing 10% FBS, GIBCO). The cells were scattered and collected, after counting, diluted to 1×10^5 cells/ml, and seeded into a 96-well plate at 50 μl/well, 5000 cells/well, excluding the peripheral circle of wells in which no cell was added, but PBS was added, 60 wells in total, and then incubated at 37° C. for 24 hours for adhering.
(§3) Addition of the compound and lapatinib: the test sample was diluted to a final concentration of 5 μM, and the culture medium with the corresponding compound solvent concentration was filled in the control well, the compound solvent concentration was kept consistent in each well, 5 parellel wells were set for each concentration, 25 μl each well, 25 μl culture medium (in combined group, 25 μl lapatinib was added till a final concentration of 1 μM) supplemented, followed by incubation at 37° C. for 72 hours.
(§4) Test after incubation at 37° C. for 72 hours: 50 μL of ATPlite kit substrate solution was added in each well, and vibrated for 3 min, followed by placing aside in darkness for 10 min, and then supernatant 100 μl/well was taken and placed on aluminescence test plate; the luminescence test plate that has been fully incubated was placed in a luminescence test instrument, to read luminescence value.
(§5) 1. Cell survival rate (%)=Experimental group RLU/control group RLU×100%. The experimental data were subjected to data analysis and processing by utilizing GraphPad software.

MDA-MB-361 = assay type: cell-based; details: Homo sapiens, test sample 5 μM, 72 hours, read-out: Inhibitory Rate % MDA-MB-361
Method: as §1, §2, §3, §4, §5

SK-BR3 = assay type: cell-based; details: Homo sapiens, SK-BR-3; test sample 5 μM, 72 hours; read-out: Inhibitory Rate % SK-BR3
Method: as §1, §2, §3, §4, §5

BT474 = assay type: cell-based; details: Homo sapiens, BT-474; test sample 5 μM, 72 hours; read-out: Inhibitory Rate % BT474
Method: as §1, §2, §3, §4, §5

MDA-MB-453 = assay type: cell-based; details: Homo sapiens, test sample 5 μM, 72 hours, read-out: Inhibitory Rate % MDA-MB-453
Method: as §1, §2, §3, §4, §5

SK/Lap^R1.0 = assay type: cell-based; details: Homo sapiens; test sample 5 μM, 72 hours; read-out: Inhibitory Rate % SKLap^R1.0
Method: as §1, §2, §3, §4, §5

Row | Compound | inhibition at 5 µM (BT/Lap^R1.0) | inhibition at 5 µM (MDA-MB-361) | inhibition at 5 µM (SK-BR3) | inhibition at 5 µM (BT474) | inhibition at 5 µM (MDA-MB-453) | inhibition at 5 µM (SK/Lap^R1.0)
1 | COc1nccc(N2CCC(N(C)Cc3ccccc3Cl)CC2)n1 [Example 43, N-methyl-N-(2-chlorobenzyl)-N-[1-(2-methoxypyrimidin-4-yl)piperidin-4-yl]amine] | 56.9% | 45.7% | 19.3% | 61% | 69.3% | 29.4%
2 | COc1cc(N2CCC(N(C)Cc3cc(Cl)ccc3Cl)CC2)ncn1 [Example 67, N-methyl-N-(2,5-dichlorobenzyl)-N-[1-(6-methoxypyrimidin-4-yl)piperidin-4-yl]amine] | 32.1% | 27.6% | 29.2% | 45.9% | 61.1% | 9.4%
3 | CSc1nccc(N2CCC(N(C)Cc3cccc(Cl)c3)CC2)n1 [Example 39, N-methyl-N-(3-chlorobenzyl)-N-[1-(2-methylthiopyrimidin-4-yl)piperidin-4-yl]amine] | 25.1% | 39.1% | 26.4% | 35.1% | 65.7% | 24.4%
4 | COc1cc(N2CCC(N(C)Cc3c(F)cccc3Cl)CC2)ncn1 [Example 64, N-methyl-N-(2-fluoro-6-chlorobenzyl)-N-[1-(6-methoxypyrimidin-4-yl)piperidin-4-yl] amine] | 48.5% | 39.6% | 15.5% | 45.9% | 59.4% | 16.6%
5 | CCOc1ncc(CN2CCC(N(C)Cc3ccc(Cl)c(Cl)c3)CC2)s1 [Example 3, N-methyl-N-(3,4-dichlorobenzyl)-N-{1-[(2-ethoxythiazol-5-yl)methyl]piperidin-4-yl}amine] | 67.4% | 35.8% | 41.2% | 62.9% | 71.6% | 13.1%
6 | Clc1ncc(CN2CCC(NCc3ccc(Cl)c(Cl)c3)CC2)s1 [Example 11, N-(3,4-dichlorobenzyl)-N-{1-[(2-chlorothiazol-5-yl)methyl]piperidin-4-yl}amine] | 10.6% | 13.9% | 26.3% | 11% | 32.9% | 25.1%
7 | COc1cc(N2CCC(N(C)Cc3ccc(F)cc3)CC2)ncn1 [Example 62, N-methyl-N-(4-fluorobenzyl)-N-[1-(6-methoxypyrimidin-4-yl)piperidin-4-yl]amine] | 8.1% | 4.9% | 7.6% | 7.8% | 5% | 5.7%
8 | CSc1ncc(CN2CCC(N(C)Cc3ccc(Cl)c(Cl)c3)CC2)s1 [Example 30, N-methyl-N-(3,4-dichlorobenzyl)-N-{1-[(2-methylthiothiazol-5-yl)methyl]piperidin-4-yl}amine] | 67.1% | 42.1% | 42.4% | 62.6% | 69.9% | 10.1%
9 | COc1cc(N2CCC(N(C)Cc3ccc(C)cc3)CC2)ncn1 [Example 59, N-methyl-N-(4-methylbenzyl)-N-[1-(6-methoxypyrimidin-4-yl)piperidin-4-yl]amine] | 8% | 10.6% | 20.6% | 5% | 13.4% | 22%
10 | CN(Cc1c(Cl)cccc1Cl)C1CCN(Cc2cnc(Cl)s2)CC1 [Example 24, N-methyl-N-(2,6-dichlorobenzyl)-N-{[1-(2-chlorothiazol-5-yl)methyl]piperidin-4-yl}amine] | 7.1% | 10.2% | 19% | 11.1% | 21.1% | 8.5%
11 | CN(Cc1cccc(Cl)c1)C1CCN(Cc2cnc(Cl)s2)CC1 [Example 18, N-methyl-N-(3-chlorobenzyl)-N-{1-[(2-chlorothiazol-5-yl)methyl]piperidin-4-yl}amine] | 8.4% | 9.7% | 15.5% | 7.1% | 12.6% | 8.5%
12 | COc1cc(N2CCC(N(C)Cc3ccc(C#N)cc3)CC2)ncn1 [Example 66, N-methyl-N-(p-cyanobenzyl)-N-[1-(6-methoxypyrimidin-4-yl)piperidin-4-yl]amine] | 16.9% | 20.3% | 17.3% | 25.1% | 46.1% | 8.8%
13 | CCOc1ncc(CN2CCC(N(C)Cc3ccc(Cl)cc3Cl)CC2)s1 [Example 8, N-methyl-N-(2,4-dichlorobenzyl)-N-{[1-(2-ethoxythiazol-5-yl)methyl]piperidin-4-yl}amine] | 65.9% | 49.2% | 41.6% | 70.3% | 71.3% | 12%
14 | CSc1nccc(N2CCC(N(C)Cc3ccc(Cl)c(Cl)c3)CC2)n1 [Example 38, N-methyl-N-(3,4-dichlorobenzyl)-N-[1-(2-methylthiopyrimidin-4-yl)piperidin-4-yl]amine] | 29.9% | 29.5% | 30.1% | 39.5% | 60% | 12.9%
15 | CSc1ncc(CN2CCC(N(C)Cc3cccc(Cl)c3)CC2)s1 [Example 28, N-methyl-N-(3-chlorobenzyl)-N-{1-[(2-methylthiothiazol-5-yl)methyl]piperidin-4-yl}amine] | 36.1% | 31.1% | 26.7% | 44.9% | 62.3% | 7.3%
16 | COc1nccc(N2CCC(N(C)Cc3c(F)cccc3Cl)CC2)n1 [Example 54, N-methyl-N-(2-fluoro-6-chlorobenzyl)-N-[1-(2-methoxypyrimidin-4-yl)piperidin-4-yl]amine] | 62.4% | 48.3% | 27.7% | 65.4% | 64.7% | 17.2%
17 | CN(Cc1ccc(Cl)c(Cl)c1)C1CCN(Cc2cnc(Cl)s2)CC1 [Example 17, N-methyl-N-(3,4-dichlorobenzyl)-N-{1-[(2-chlorothiazol-5-yl)methyl]piperidin-4-yl}amine] | 53.4% | 42.9% | 34.3% | 45.4% | 63.8% | 5.3%
18 | CSc1nccc(N2CCC(N(C)Cc3ccccc3C#N)CC2)n1 [Example 41, N-methyl-N-(2-cyanobenzyl)-N-[1-(2-methylthiopyrimidin-4-yl)piperidin-4-yl]amine] | 65.8% | 55.7% | 38.9% | 69.2% | 66.6% | 42%
19 | CNC1CCN(c2nccc(OC)n2)CC1 [Example 46, N-methyl-N-[1-(4-methoxypyrimidin-2-yl)piperidin-4-yl]amine] | 70% | 53.2% | 85.9% | 73.1% | 79.2% | 71%
20 | COc1nccc(N2CCC(N(C)Cc3ccc(C)cc3)CC2)n1 [Example 51, N-methyl-N-(4-methylbenzyl)-N-[1-(2-methoxypyrimidin-4-yl)piperidin-4-yl]amine] | 65.2% | 45.7% | 34.5% | 65.6% | 70.5% | 22.4%
21 | CSc1ncc(CN2CCC(N(C)Cc3cccc(F)c3)CC2)s1 [Example 27, N-methyl-N-(3-fluorobenzyl)-N-{[1-(2-methylthiothiazol-5-yl)methyl]piperidin-4-yl}amine] | 19.8% | 31.7% | 19.5% | 26.3% | 44.2% | 2.1%
22 | COc1cc(N2CCC(N(C)Cc3ccccc3Cl)CC2)ncn1 [Example 58, N-methyl-N-(2-chlorobenzyl)-N-[1-(6-methoxypyrimidin-4-yl)piperidin-4-yl]amine] | 18.9% | 20.3% | 13.5% | 27.7% | 46.7% | 29%
